How the values were obtained:
Assay type in all cases: biochemical
[1] = target: T1, JAK3 (Homo sapiens, UniProt P52333); test: Z'-LYTE kinase assay JAK3
T1 construct: 5 μl of catalytic domain recombinant Kinase enzyme+Tyr peptide substrate (Invitrogen, CA); purchased Invitrogen
How it was run: (§1)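 Z′-LYTE FRET, Tyr6 peptide, recombinant catalytic domain + ATP, 1 h RT, 1% DMSO final, duplicates; protease development 1 h RT; fluorescence read.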

[2] = target: T2, JAK2 (Homo sapiens, UniProt O60674); test: Z'-LYTE kinase assay JAK2
T2 construct: 5 μl of catalytic domain recombinant Kinase enzyme+Tyr peptide substrate (Invitrogen, CA); purchased Invitrogen
T2 sequence (O60674 849-1124 limits assumed): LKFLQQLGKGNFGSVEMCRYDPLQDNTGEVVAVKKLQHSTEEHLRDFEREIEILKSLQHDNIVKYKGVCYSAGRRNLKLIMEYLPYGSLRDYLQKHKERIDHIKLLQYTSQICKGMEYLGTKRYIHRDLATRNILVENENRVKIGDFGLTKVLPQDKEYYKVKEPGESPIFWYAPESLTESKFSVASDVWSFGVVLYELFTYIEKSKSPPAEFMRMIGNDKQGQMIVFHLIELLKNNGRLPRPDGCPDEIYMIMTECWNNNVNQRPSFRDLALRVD
How it was run: as §1

[3] = target: T3, JAK1 (Homo sapiens, UniProt P23458); test: Z'-LYTE kinase assay JAK1
T3 construct: 5 μl of catalytic domain recombinant Kinase enzyme+Tyr peptide substrate (Invitrogen, CA); purchased Invitrogen
T3 sequence (P23458 875-1153 limits assumed): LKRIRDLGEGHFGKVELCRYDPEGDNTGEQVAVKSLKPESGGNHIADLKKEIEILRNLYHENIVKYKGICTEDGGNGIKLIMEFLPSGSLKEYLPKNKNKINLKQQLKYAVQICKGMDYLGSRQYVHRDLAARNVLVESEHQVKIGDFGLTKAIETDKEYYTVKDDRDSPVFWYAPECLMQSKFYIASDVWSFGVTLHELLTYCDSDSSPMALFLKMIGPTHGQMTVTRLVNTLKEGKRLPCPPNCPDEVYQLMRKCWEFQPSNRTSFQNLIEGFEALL
How it was run: as §1

T1 sequence (P52333 822-1111 limits assumed): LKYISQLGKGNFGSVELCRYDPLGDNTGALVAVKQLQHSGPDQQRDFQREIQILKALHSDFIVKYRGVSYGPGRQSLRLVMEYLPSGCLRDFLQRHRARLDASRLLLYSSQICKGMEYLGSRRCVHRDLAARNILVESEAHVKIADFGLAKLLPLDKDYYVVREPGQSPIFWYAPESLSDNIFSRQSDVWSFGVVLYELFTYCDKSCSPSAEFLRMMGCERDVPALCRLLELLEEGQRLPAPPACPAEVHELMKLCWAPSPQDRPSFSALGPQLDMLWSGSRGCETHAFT

Row | Structure (SMILES) | IC50 [1] [nM] | IC50 [2] [nM] | IC50 [3] [nM]
1 | CN(C)C(=O)C1CN(c2ccc(Nc3cc(NCc4ccccc4)c(C(N)=O)cn3)cc2F)C1 [Example 342, 4-(benzylamino)-6-(4-(3-(dimethylcarbamoyl)azetidin-1-yl)-3-fluorophenylamino)nicotinamide] | 1 to 10 | 100 to 1000 | 100 to 1000
2 | CN(C)C(=O)C1CCN(c2ccc(Nc3cc(NCc4ccccc4)c(C(N)=O)cn3)cc2)CC1 [Example 343, 4-(benzylamino)-6-(4-(4-(dimethylcarbamoyl)piperidin-1-yl)phenylamino)nicotinamide] | 1 to 10 | 10 to 100 | 100 to 1000
3 | CN(C)C(=O)C1CCN(c2ccc(Nc3cc(NCc4cccc5sccc45)c(C(N)=O)cn3)cc2)CC1 [Example 344, 4-(benzo[b]thiophen-4-ylmethylamino)-6-(4-(4-(dimethylcarbamoyl)piperidin-1-yl)phenylamino)nicotinamide] | 1 to 10 | 10 to 100 | 100 to 1000
4 | CN(C)C(=O)C1CCN(c2ccc(Nc3cc(NCc4cccc5[nH]ccc45)c(C(N)=O)cn3)cc2)CC1 [Example 345, 4-((1H-indol-4-yl)methylamino)-6-(4-(4-(dimethylcarbamoyl)piperidin-1-yl)phenylamino)nicotinamide] | < 1 | 1 to 10 | 1 to 10
5 | CS(=O)(=O)Cc1ccc(Nc2cc(NCc3cccc4ccsc34)c(C(N)=O)cn2)cc1 [Example 346, 4-(benzo[b]thiophen-7-ylmethylamino)-6-(4-(methylsulfonylmethyl)phenylamino)nicotinamide] | < 1 | 10 to 100 | 10 to 100
6 | CS(=O)(=O)Cc1ccc(Nc2cc(NCc3ccccc3)c(C(N)=O)cn2)cc1 [Example 347, 4-(benzylamino)-6-(4-(methylsulfonylmethyl)phenylamino)nicotinamide] | 1 to 10 | 100 to 1000 | 100 to 1000
7 | CS(=O)(=O)Cc1ccc(Nc2cc(NCc3cccc4[nH]ccc34)c(C(N)=O)cn2)cc1 [Example 348, 4-((1H-indol-4-yl)methylamino)-6-(4-(methylsulfonylmethyl)phenylamino)nicotinamide] | < 1 | 1 to 10 | 1 to 10
8 | CN(C)C(=O)C1CN(c2ccc(Nc3cc(NCc4cccc5ccsc45)c(C(N)=O)cn3)cc2F)C1 [Example 349, 4-(benzo[b]thiophen-7-ylmethylamino)-6-(4-(3-(dimethylcarbamoyl)azetidin-1-yl)-3-fluorophenylamino)nicotinamide] | 1 to 10 | 10 to 100 | 100 to 1000
9 | CN(C)C(=O)C1CCN(c2ccc(Nc3cc(NCc4cccc5ccsc45)c(C(N)=O)cn3)cc2)CC1 [Example 350, 4-(benzo[b]thiophen-7-ylmethylamino)-6-(4-(4-(dimethylcarbamoyl)piperidin-1-yl)phenylamino)nicotinamide] | < 1 | 10 to 100 | 10 to 100
10 | CN(C)C(=O)C1CCN(c2ccc(Nc3cc(NCc4cccc5ccsc45)c(C(N)=O)cn3)cc2Cl)CC1 [Example 351, 4-(benzo[b]thiophen-7-ylmethylamino)-6-(3-chloro-4-(4-(dimethylcarbamoyl)piperidin-1-yl)phenylamino)nicotinamide] | 1 to 10 | 100 to 1000 | 100 to 1000
11 | CC(=O)NCc1ccc(Nc2cc(NCc3cccc4ccsc34)c(C(N)=O)cn2)cc1 [Example 352, 6-(4-(acetamidomethyl)phenylamino)-4-(benzo[b]thiophen-7-ylmethylamino)nicotinamide] | 1 to 10 | 10 to 100 | 10 to 100
12 | CS(=O)(=O)NCc1ccc(Nc2cc(NCc3cccc4ccsc34)c(C(N)=O)cn2)cc1 [Example 353, 4-(benzo[b]thiophen-7-ylmethylamino)-6-(4-(methylsulfonamidomethyl)phenylamino)nicotinamide] | 1 to 10 | 10 to 100 | 100 to 1000
